According to the NIST ThermoML archive (doi:10.1021/je100300s):

Assay: refractive index (Na D-line) (dimensionless); xn = mol fraction of the nth substance listed
Conditions: 101 kPa, Liquid, Standard Abbe refractometry

CC(O)CN (stereo not drawn) [1-amino-2-propanol] + O
refractive index
Conditions	293.15 K	298.15 K	303.15 K	308.15 K	313.15 K	318.15 K	323.15 K	328.15 K	333.15 K
x1 = 0.05	1.35692	1.35622	1.35539	1.35453	1.35365	1.35269	1.35169	1.35059	1.35023
x1 = 0.07	1.36527	1.36437	1.36345	1.36246	1.36149	1.36047	1.35931	1.35816	1.35711
x1 = 0.0986	1.3763	1.37524	1.37416	1.37306	1.37191	1.37079	1.36955	1.36821	1.36712
x1 = 0.1993	1.40333	1.40184	1.40038	1.39868	1.39716	1.39563	1.39469	1.39247	1.39103
x1 = 0.3003	1.41934	1.41723	1.41554	1.41385	1.41214	1.41051	1.40883	1.4072	1.40563
x1 = 0.3955	1.42844	1.4268	1.42513	1.42331	1.42155	1.41987	1.41801	1.4164	1.4146
x1 = 0.4929	1.43452	1.43286	1.431	1.42913	1.4273	1.42548	1.42386	1.4226	1.42038
x1 = 0.5995	1.43934	1.4377	1.4359	1.43375	1.43187	1.43017	1.42857	1.42697	1.42445
x1 = 0.7002	1.44298	1.44053	1.43897	1.43685	1.43493	1.43243	1.43146	1.43006	1.42775
x1 = 0.8006	1.44474	1.44287	1.4411	1.43908	1.43715	1.43532	1.43369	1.43134	1.42949
x1 = 0.8992	1.44655	1.4447	1.44275	1.44076	1.43889	1.43691	1.4349	1.43292	1.43089
x1 = 1	1.448	1.44609	1.44409	1.44211	1.44009	1.43817	1.43631	1.43405	1.43208
